Reference: PubChem BioAssay AID248 (DTP/NCI, 2004)
Several values for one entry are separate records, joined by “and”; a condition that tells them apart may be missing. Equal entries are not always repeated. Toxic doses and inconclusive results are not listed. No stated cut-off is given here; in the data, active means T/C of 150% or more; inactive means T/C below 125%.

Test system: L1210 leukemia ip in BDF1 mice, survival T/C
Assay: NCI In Vivo Anticancer Drug Screen. Data for tumor model L1210 Leukemia (intraperitoneal) in B6D2F1 (BDF1) mice
Conditions: endpoint: mean survival time, higher = longer survival
How it was run: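 Read-out is survival time, reported as the treated-group measurement over the vehicle-control measurement.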

[1] = dose: 100.0 mg/kg/injection, schedule: Q01DX009 (ip), vehicle: Klucel (hydroxypropylcellulose) (HPC)
[2] = dose: 200.0 mg/kg/injection, schedule: Q01DX009 (ip), vehicle: Klucel (hydroxypropylcellulose) (HPC)
[3] = dose: 400.0 mg/kg/injection, schedule: Q01DX009 (ip), vehicle: Klucel (hydroxypropylcellulose) (HPC)
[4] = dose: 100.0 mg/kg/injection, schedule: Q01DX009 (ip), vehicle: saline
[5] = dose: 100.0 mg/kg/injection, schedule: Q04DX003 (ip), vehicle: saline
[6] = dose: 200.0 mg/kg/injection, schedule: Q01DX009 (ip), vehicle: saline
[7] = dose: 200.0 mg/kg/injection, schedule: Q04DX003 (ip), vehicle: saline
[8] = dose: 400.0 mg/kg/injection, schedule: Q01DX009 (ip), vehicle: saline
[9] = dose: 400.0 mg/kg/injection, schedule: Q04DX003 (ip), vehicle: saline
[10] = dose: 100.0 mg/kg/injection, schedule: Q04DX003 (ip), vehicle: saline with Tween-80

Measured: T/C

O=C1OC(c2ccc([N+](=O)[O-])cc2)=N/C1=C\c1ccc(O)cc1
inactive: [1] 96 % of control | [2] 96 % of control | [3] 90 % of control

N#CC(CCCc1ccccc1)c1ccc(N)cc1 (centres undefined)
inactive: dose: 100.0 mg/kg/injection, schedule: Q01DX001 (ip), vehicle: Klucel (hydroxypropylcellulose) (HPC) 91 % of control | dose: 200.0 mg/kg/injection, schedule: Q01DX001 (ip), vehicle: Klucel (hydroxypropylcellulose) (HPC) 94 % of control | dose: 400.0 mg/kg/injection, schedule: Q01DX001 (ip), vehicle: Klucel (hydroxypropylcellulose) (HPC) 103 % of control

CC(=O)CC(=O)Nc1cc(C)c(NC(=O)CC(C)=O)cc1C
inactive: [1] 95 % of control | dose: 100.0 mg/kg/injection, schedule: Q04DX003 (ip), vehicle: Klucel (hydroxypropylcellulose) (HPC) 98 % of control | [2] 93 % of control | dose: 200.0 mg/kg/injection, schedule: Q04DX003 (ip), vehicle: Klucel (hydroxypropylcellulose) (HPC) 96 % of control | [3] 103 % of control | dose: 400.0 mg/kg/injection, schedule: Q04DX003 (ip), vehicle: Klucel (hydroxypropylcellulose) (HPC) 98 % of control

N=C(N)/C=C\C(=O)O
inactive: dose: 5.0 mg/kg/injection, schedule: Q01DX Z (ip), vehicle: carboxymethylcellulose (CMC) 93 % of control | dose: 10.0 mg/kg/injection, schedule: Q01DX Z (ip), vehicle: carboxymethylcellulose (CMC) 103 % of control | dose: 20.0 mg/kg/injection, schedule: Q01DX Z (ip), vehicle: carboxymethylcellulose (CMC) 101 % of control

CCCC(=O)c1cc(C)sc1C
inactive: dose: 100.0 mg/kg/injection, schedule: Q01DX009 (sc), vehicle: olive oil, sesame oil, peanut oil 90 % of control | dose: 100.0 mg/kg/injection, schedule: Q04DX003 (sc), vehicle: olive oil, sesame oil, peanut oil 100 % of control | dose: 200.0 mg/kg/injection, schedule: Q01DX009 (sc), vehicle: olive oil, sesame oil, peanut oil 87 % of control | dose: 200.0 mg/kg/injection, schedule: Q04DX003 (sc), vehicle: olive oil, sesame oil, peanut oil 93 % of control | dose: 400.0 mg/kg/injection, schedule: Q01DX009 (sc), vehicle: olive oil, sesame oil, peanut oil 99 % of control | dose: 400.0 mg/kg/injection, schedule: Q04DX003 (sc), vehicle: olive oil, sesame oil, peanut oil 100 % of control

CC(O)(c1ccc(Br)cc1)C(c1ccccc1)c1ccccn1 (centres undefined)
inactive: dose: 50.0 mg/kg/injection, schedule: Q01DX009 (ip), vehicle: saline 103 % of control | [4] 94 % of control | [5] 110 % of control | [6] 94 % of control | [7] 103 % of control | [8] 101 % of control | [9] 110 % of control

COc1ccc2c(=O)c(C)c(-c3ccccc3)oc2c1CN(C)C
inactive: dose: 0.19 mg/kg/injection, schedule: Q01DX009 (ip), vehicle: saline 96 % of control | dose: 0.39 mg/kg/injection, schedule: Q01DX009 (ip), vehicle: saline 112 % of control | dose: 0.78 mg/kg/injection, schedule: Q01DX009 (ip), vehicle: saline 110 % of control | dose: 0.78 mg/kg/injection, schedule: Q04DX003 (ip), vehicle: saline 100 % of control | dose: 1.56 mg/kg/injection, schedule: Q01DX009 (ip), vehicle: saline 112 % of control | dose: 1.56 mg/kg/injection, schedule: Q04DX003 (ip), vehicle: saline 94 % of control | dose: 3.12 mg/kg/injection, schedule: Q01DX009 (ip), vehicle: saline 108 % of control | dose: 3.12 mg/kg/injection, schedule: Q04DX003 (ip), vehicle: saline 93 % of control | dose: 5.0 mg/kg/injection, schedule: Q01DX001 (ip), vehicle: saline 103 % of control

CC12CCC(C3=C1OC(=O)C(c1ccccc1)(c1ccccc1)C3=O)C2(C)C (centres undefined)
inactive: dose: 100.0 mg/kg/injection, schedule: Q01DX001 (ip), vehicle: saline 105 % of control | [4] 94 % of control | [5] 103 % of control | dose: 200.0 mg/kg/injection, schedule: Q01DX001 (ip), vehicle: saline 113 % of control | [6] 102 % of control | [7] 97 % of control | dose: 400.0 mg/kg/injection, schedule: Q01DX001 (ip), vehicle: saline 97 % of control | [8] 100 % of control | [9] 103 % of control

CC(C)C(CN)(CCCCN1CCCCC1)c1cccc2ccccc12 (centres undefined)
inactive: [10] 95 % of control

ClCC[N+]12CC[N+](CCCl)(CC1)C2
inactive: dose: 75.0 mg/kg/injection, schedule: Q01DX001 (ip), vehicle: saline 105 % of control | dose: 150.0 mg/kg/injection, schedule: Q01DX001 (ip), vehicle: saline 120 % of control

COC(=O)C1CCC(=O)CC1
inactive: dose: 100.0 mg/kg/injection, schedule: Q04DX002 (ip), vehicle: saline 96 % of control | dose: 200.0 mg/kg/injection, schedule: Q04DX002 (ip), vehicle: saline 101 % of control | dose: 400.0 mg/kg/injection, schedule: Q04DX002 (ip), vehicle: saline 99 % of control

CCCCN(CCCC)CCNCC(Cc1ccccc1)c1ccccc1 (centres undefined)
inactive: dose: 100.0 mg/kg/injection, schedule: Q04DX002 (ip), vehicle: Klucel (hydroxypropylcellulose) (HPC) 93 % of control

COc1ccc(COC2C(CO)OC(n3cnc4c(N)ncnc43)C2O)cc1 (centres undefined)
inactive: dose: 100.0 mg/kg/injection, schedule: Q01DX005 (ip), vehicle: saline 97 % of control | dose: 200.0 mg/kg/injection, schedule: Q01DX005 (ip), vehicle: saline 100 % of control

N#C/C=C/C1=CCCCC1
inactive: [5] 101 % of control | [7] 97 % of control | [9] 93 % of control

CCCCCCCC/C=C\CCCCCCCC(=O)OCCCCCCCCCCCCCCCCCC
inactive: [1] 104 % of control | dose: 100.0 mg/kg/injection, schedule: Q01DX009 (ip), vehicle: saline sonified 105 % of control | [2] 91 % of control | dose: 200.0 mg/kg/injection, schedule: Q01DX009 (ip), vehicle: saline sonified 93 % of control | [3] 105 % of control | dose: 400.0 mg/kg/injection, schedule: Q01DX009 (ip), vehicle: saline sonified 98 % of control

O=C(Cl)C1CCCCC1
inactive: dose: 6.25 mg/kg/injection, schedule: Q01DX015 (ip), vehicle: saline 93 % of control | dose: 12.5 mg/kg/injection, schedule: Q01DX015 (ip), vehicle: saline 89 % of control | dose: 25.0 mg/kg/injection, schedule: Q01DX015 (ip), vehicle: saline 93 % of control and 96 % of control | dose: 50.0 mg/kg/injection, schedule: Q01DX015 (ip), vehicle: saline 90 % of control

O=C(NC(=S)Nc1ccc(Cl)c(Cl)c1)c1ccc(Cl)cc1Cl
inactive: dose: 100.0 mg/kg/injection, schedule: Q01DX001 (ip), vehicle: saline with Tween-80 93 % of control | dose: 100.0 mg/kg/injection, schedule: Q01DX009 (ip), vehicle: saline with Tween-80 97 % of control and 98 % of control | dose: 100.0 mg/kg/injection, schedule: Q04DX002 (ip), vehicle: saline with Tween-80 98 % of control and 90 % of control | [10] 93 % of control | dose: 200.0 mg/kg/injection, schedule: Q01DX001 (ip), vehicle: saline with Tween-80 89 % of control | dose: 200.0 mg/kg/injection, schedule: Q01DX009 (ip), vehicle: saline with Tween-80 91 % of control and 92 % of control | dose: 200.0 mg/kg/injection, schedule: Q04DX002 (ip), vehicle: saline with Tween-80 101 % of control | dose: 200.0 mg/kg/injection, schedule: Q04DX003 (ip), vehicle: saline with Tween-80 93 % of control | dose: 400.0 mg/kg/injection, schedule: Q01DX009 (ip), vehicle: saline with Tween-80 87 % of control and 91 % of control | dose: 400.0 mg/kg/injection, schedule: Q04DX002 (ip), vehicle: saline with Tween-80 95 % of control and 90 % of control | dose: 400.0 mg/kg/injection, schedule: Q04DX003 (ip), vehicle: saline with Tween-80 93 % of control
